Experimental data reported in patent US9738655B2, “Tetrahydroisoquinolines containing substituted azoles as factor XIa inhibitors” (BRISTOL-MYERS SQUIBB COMPANY, priority 2013, dated 2017).
Counter-ions that a name gives are not always drawn. Like-named read-outs stand apart in the source and are kept apart here.

Key:
[1] = molecular target: purified human plasma kallikrein (Homo sapiens (Human), UniProt P03952); assay: Plasma kallikrein enzyme inhibition assay (chromogenic substrate S-2302); type: biochemical
[2] = molecular target: purified human Factor XIa (Homo sapiens (Human), UniProt P03951); assay: Factor XIa enzyme inhibition assay (chromogenic substrate S-2366)
Experimental: The effectiveness of compounds of the present invention as inhibitors of the coagulation Factors XIa, VIIa, IXa, Xa, XIIa, plasma kallikrein or thrombin, can be determined using a relevant purified serine protease, respectively, and an appropriate synthetic substrate. The rate of hydrolysis of the chromogenic or fluorogenic substrate by the relevant serine protease was measured both in the absence and presence of compounds of the present invention. […] A decrease in the rate of absorbance or fluorescence change in the presence of inhibitor is indicative of enzyme inhibition. […] The results of this assay are expressed as the inhibitory constant, Ki.
Values of Ki were determined by allowing the protease to react with the substrate in the presence of the inhibitor.

[3] = measured at 25° C. (no asterisk)
[4] = read-out: Factor XIa Ki, measured at 25° C.

purified human Factor XIa, sequence (P03951 388-625): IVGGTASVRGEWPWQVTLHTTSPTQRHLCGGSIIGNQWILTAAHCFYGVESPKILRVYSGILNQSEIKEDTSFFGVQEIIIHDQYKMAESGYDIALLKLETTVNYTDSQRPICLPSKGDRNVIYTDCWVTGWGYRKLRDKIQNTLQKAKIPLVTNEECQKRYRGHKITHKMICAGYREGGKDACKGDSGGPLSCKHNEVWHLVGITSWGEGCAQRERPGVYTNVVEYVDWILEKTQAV
purified human Factor XIa, sequence (P03951 19-387 partner): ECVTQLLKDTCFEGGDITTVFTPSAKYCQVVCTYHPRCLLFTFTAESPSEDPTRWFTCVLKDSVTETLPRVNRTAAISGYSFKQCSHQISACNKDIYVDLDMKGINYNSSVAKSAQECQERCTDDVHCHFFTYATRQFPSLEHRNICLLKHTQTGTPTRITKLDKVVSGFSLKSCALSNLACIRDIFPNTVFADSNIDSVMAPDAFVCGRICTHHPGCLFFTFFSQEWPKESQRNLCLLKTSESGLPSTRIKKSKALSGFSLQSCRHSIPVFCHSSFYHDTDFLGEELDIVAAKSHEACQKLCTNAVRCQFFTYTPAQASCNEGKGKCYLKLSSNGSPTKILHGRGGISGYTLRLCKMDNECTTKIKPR
purified human plasma kallikrein, sequence (P03952 391-638): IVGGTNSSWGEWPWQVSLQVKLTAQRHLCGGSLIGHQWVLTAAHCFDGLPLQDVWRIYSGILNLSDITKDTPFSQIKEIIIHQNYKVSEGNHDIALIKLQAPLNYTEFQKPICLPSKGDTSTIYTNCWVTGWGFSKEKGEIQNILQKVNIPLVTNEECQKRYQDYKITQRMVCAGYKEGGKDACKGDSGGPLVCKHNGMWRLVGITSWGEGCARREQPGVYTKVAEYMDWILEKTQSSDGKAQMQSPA
purified human plasma kallikrein, sequence (P03952 20-390 partner): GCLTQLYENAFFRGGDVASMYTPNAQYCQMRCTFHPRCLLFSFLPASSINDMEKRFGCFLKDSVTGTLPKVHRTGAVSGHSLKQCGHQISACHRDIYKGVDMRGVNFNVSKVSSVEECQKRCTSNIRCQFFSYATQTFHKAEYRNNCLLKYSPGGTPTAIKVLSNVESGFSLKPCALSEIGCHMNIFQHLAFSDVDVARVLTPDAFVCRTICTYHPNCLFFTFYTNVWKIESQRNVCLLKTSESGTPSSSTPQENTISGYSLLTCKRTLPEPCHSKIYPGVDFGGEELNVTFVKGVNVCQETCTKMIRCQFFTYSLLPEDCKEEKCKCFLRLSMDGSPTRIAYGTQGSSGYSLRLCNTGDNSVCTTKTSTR

Row | Compound | Ki [1, 3] | also measured
1 | 4-(2-(3-Amino-1-(3-chloro-2-fluorophenyl)-1H-pyrazole-4-carbonyl)-5-(4-(2-(dimethylamino)ethoxy)piperidin-1-yl)-1,2,3,4-tetrahydroisoquinoline-1-carboxamido)benzoic acid, 2 TFA salt [Example 319] | 6.41 nM | Ki [2, 4]: < 5 nM
2 | 4-(2-(5-amino-1-(3-chloro- 2-fluorophenyl)-1H- pyrazole-4-carbonyl)-5-(4- (pyrrolidin-1- yl)piperidin-1-yl)-1,2,3,4- tetrahydroisoquinoline-1- carboxamido)benzoic acid, 3TFA salt [Example 213] | 12.2 nM | Ki ([2]; read-out: Factor XIa Ki): < 5 nM
3 | 4-(2-(5-amino-1-(3-chloro- 2-fluorophenyl)-1H- pyrazole-4-carbonyl)-5-(4- methylpiperazin-1- yl)-1,2,3,4- tetrahydroisoquinoline-1- carboxamido)benzoic acid, 2 TFA salt [Example 212] | 2.89 nM | Ki [2, 4]: 20.9 nM
4 | CO[C@@H]1CCN(c2cccc3c2CCN(C(=O)c2cn(-c4cccc(Cl)c4F)nn2)C3C(=O)Nc2ccc(C(=O)O)cc2)C1 (mixture of isomers) [Example 84, 4-(2-(1-(3-chloro-2-fluorophenyl)-1H-1,2,3-triazole-4-carbonyl)-5-((R)-3-methoxypyrrolidin-1-yl)-1,2,3,4-tetrahydroisoquinoline-1-carboxamido)benzoic acid, TFA salt] | 15.8 nM | Ki [2, 4]: < 5 nM
5 | COC1CCN(c2cccc3c2CCN(C(=O)c2cnn(-c4cccc(Cl)c4F)c2)C3C(=O)Nc2ccc(C(=O)O)cc2)CC1 (racemic) [Example 252, 4-(2-(1-(3-chloro-2-fluorophenyl)-1H-pyrazole-4-carbonyl)-5-(4-methoxypiperidin-1-yl)-1,2,3,4-tetrahydroisoquinoline-1-carboxamido)benzoic acid, TFA salt] | 42.8 nM | Ki [2]: < 5 nM
6 | COC1CCN(c2cccc3c2CCN(C(=O)c2nnn(-c4cccc(Cl)c4F)c2C)C3C(=O)Nc2ccc(C(=O)O)cc2)CC1 (racemic) [Example 253, 4-(2-(1-(3-chloro-2-fluorophenyl)-5-methyl-1H-1,2,3-triazole-4-cabonyl)-5-(4-methoxypiperidin-1-yl)-1,2,3,4-tetrahydroisoquinoline-1-carboxamido)benzoic acid, TFA salt] | 156 nM | Ki [2]: 11.1 nM
7 | COC1CCN(c2cccc3c2CCN(C(=O)c2cn(-c4c(F)ccc(Cl)c4F)nn2)C3C(=O)Nc2ccc(C(=O)O)cc2)CC1 (racemic) [Example 254, 4-(2-(1-(3-chloro-2,6-difluorophenyl)-1H-1,2,3-triazole-4-carbonyl)-5-(4-methoxypiperidin-1-yl)-1,2,3,4-tetrahydroisoquinoline-1-carboxamido)benzoic acid, TFA salt] | 26.7 nM | Ki [2]: < 5 nM
8 | COC1CCN(c2cccc3c2CCN(C(=O)c2cnn(-c4cccc(Cl)c4F)c2C)C3C(=O)Nc2ccc(C(=O)O)cc2)CC1 (racemic) [Example 259, 4-(2-(1-(3-chloro-2-fluorophenyl)-5-methyl-1H-pyrazole-4-carbonyl)-5-(4-methoxypiperidin-1-yl)-1,2,3,4-tetrahydroisoquinoline-1-carboxamido)benzoic acid, TFA salt] | 77.9 nM | Ki [2]: < 5 nM
9 | COC1CCN(c2cccc3c2CCN(C(=O)c2cn(-c4cccc(Cl)c4F)nc2O)C3C(=O)Nc2ccc(C(=O)O)cc2)CC1 (racemic) [Example 264, 4-(2-(1-(3-chloro-2-fluorophenyl)-3-hydroxy-1H-pyrazole-4-carbonyl)-5-(4-methoxypiperidin-1-yl)-1,2,3,4-tetrahydroisoquinoline-1-carboxamido)benzoic acid, TFA salt] | 11.1 nM | Ki [2]: < 5 nM
10 | COC1CCN(c2cccc3c2CCN(C(=O)c2cc(-c4c(F)ccc(Cl)c4F)no2)C3C(=O)Nc2ccc(C(=O)O)cc2)CC1 (racemic) [Example 265, 4-(2-(3-(3-chloro-2,6-difluorophenyl)isoxazole-5-carbonyl)-5-(4-methoxypiperidin-1-yl)-1,2,3,4-tetrahydroisoquinoline-1-carboxamido)benzoic acid, TFA salt] | 178 nM | Ki [2]: 13.2 nM
11 | COCCOc1cccc2c1CCN(C(=O)[C@H]1CC(c3cccc(Cl)c3F)=NO1)[C@@H]2C(=O)Nc1ccc(C(=O)O)cc1 [Example 114, 4-((S)-2-((R)-3-(3-Chloro-2-fluorophenyl)-4,5-dihydroisoxazole-5-carbonyl)-5-(2-methoxyethoxy)-1,2,3,4-tetrahydroisoquinoline-1-carboxamido)benzoic Acid] | 15.2 nM | –
12 | COCCOc1cccc2c1CCN(C(=O)[C@H]1CC(c3cccc(Cl)c3F)=NO1)[C@H]2C(=O)Nc1ccc(C(=O)O)cc1 [Example 115, 4-((R)-2-((R)-3-(3-Chloro-2-fluorophenyl)-4,5-dihydroisoxazole-5-carbonyl)-5-(2-methoxyethoxy)-1,2,3,4-tetrahydroisoquinoline-1-carboxamido)benzoic acid] | 61.3 nM | –
13 | COC1CCN(c2cccc3c2CCN(C(=O)C2CCN(c4cccc(Cl)c4)C2=O)C3C(=O)Nc2ccc(C(=O)O)cc2)CC1 (stereo not shown) [Example 151, 4-(2-(1-(3-chlorophenyl)-2-oxopyrrolidine-3-carbonyl)-5-(4-methoxypiperidin-1-yl)-1,2,3,4-tetrahydroisoquinoline-1-carboxamido)benzoic acid, TFA salt] | 816 nM | –
14 | CN1CCN(c2cccc3c2CCN(C(=O)C2CC(c4cccc(Cl)c4F)=NO2)C3C(=O)Nc2ccc(C(=O)O)cc2)CC1 (stereo not shown) [Example 202, 4-(2-(3-(3-chloro-2-fluorophenyl)-4,5-dihydroisoxazole-5-carbonyl)-5-(4-methylpiperazin-1-yl)-1,2,3,4-tetrahydroisoquinoline-1-carboxamido)benzoic acid, 2 TFA salt] | 1.11 nM | –
15 | O=C(O)c1ccc(NC(=O)[C@@H]2c3cccc(N4CCC(C5COC5)CC4)c3CCN2C(=O)[C@H]2CC(c3cccc(Cl)c3F)=NO2)cc1 [Example 234, 4-((S)-2-((R)-3-(3-Chloro-2-fluorophenyl)-4,5-dihydroisoxazole-5-carbonyl)-5-(4-(oxetan-3-yl)piperidin-1-yl)-1,2,3,4-tetrahydroisoquinoline-1-carboxamido)benzoic acid, TFA salt] | – | Ki ([1]; measured at 37° C. (*)): 26.9 nM
16 | O=C(O)c1ccc(NC(=O)[C@@H]2c3cccc(-n4cnnc4)c3CCN2C(=O)[C@H]2CC(c3cccc(Cl)c3F)=NO2)cc1 [Example 247, 4-((S)-2-((R)-3-(3-Chloro-2-fluorophenyl)-4,5-dihydroisoxazole-5-carbonyl)-5-(4H-1,2,4-triazol-4-yl)-1,2,3,4-tetrahydroisoquinoline-1-carboxamido)benzoic acid, TFA salt] | – | Ki ([1]; measured at 37° C. (*)): 9.2 nM
17 | O=C(O)c1ccc(NC(=O)[C@H]2c3cccc(-n4cnnc4)c3CCN2C(=O)[C@H]2CC(c3cccc(Cl)c3F)=NO2)cc1 [Example 248, 4-((R)-2-((R)-3-(3-Chloro-2-fluorophenyl)-4,5-dihydroisoxazole-5-carbonyl)-5-(4H-1,2,4-triazol-4-yl)-1,2,3,4-tetrahydroisoquinoline-1-carboxamido)benzoic acid, TFA salt] | – | Ki ([1]; measured at 37° C. (*)): 83.2 nM
18 | CC(C)c1nnc2n1CCN(c1cccc3c1CCN(C(=O)[C@@H]1CC(c4cccc(Cl)c4F)=NO1)[C@@H]3C(=O)Nc1ccc(C(=O)O)cc1)C2 [Example 338, 4-((S)-2-((S)-3-(3-Chloro-2-fluorophenyl)-4,5-dihydroisoxazole-5-carbonyl)-5-(3-isopropyl-5,6-dihydro-[1,2,4]triazolo[4,3-a]pyrazin-7(8H)-yl)-1,2,3,4-tetrahydroisoquinoline-1-carboxamido)benzoic acid, TFA salt] | – | Ki ([1]; measured at 37° C. (*)): 251 nM
19 | CC(C)c1nnc2n1CCN(c1cccc3c1CCN(C(=O)[C@@H]1CC(c4cccc(Cl)c4F)=NO1)[C@H]3C(=O)Nc1ccc(C(=O)O)cc1)C2 [Example 339, 4-((R)-2-((S)-3-(3-Chloro-2-fluorophenyl)-4,5-dihydroisoxazole-5-carbonyl)-5-(3-isopropyl-5,6-dihydro-[1,2,4]triazolo[4,3-a]pyrazin-7(8H)-yl)-1,2,3,4-tetrahydroisoquinoline-1-carboxamido)benzoic acid, TFA salt] | – | Ki ([1]; measured at 37° C. (*)): 84.6 nM

Further lines, with some results ahead:

Row | Ki [1, 3] | Compound | also measured
20 | 15.2 nM | O=C(O)c1ccc(NC(=O)[C@@H]2c3cccc(N4CCCCC4)c3CCN2C(=O)[C@H]2CC(c3cccc(Cl)c3F)=NO2)cc1 [Example 291, 4-((S)-2-((R)-3-(3-chloro-2-fluorophenyl)-4,5-dihydroisoxazole-5-carbonyl)-5-(piperidin-1-yl)-1,2,3,4-tetrahydroisoquinoline-1-carboxamido)benzoic acid, TFA salt] | –
21 | 758 nM | O=C(O)c1ccc(NC(=O)[C@H]2c3cccc(N4CCCCC4)c3CCN2C(=O)[C@H]2CC(c3cccc(Cl)c3F)=NO2)cc1 [Example 292, 4-((R)-2-((R)-3-(3-chloro-2-fluorophenyl)-4,5-dihydroisoxazole-5-carbonyl)-5-(piperidin-1-yl)-1,2,3,4-tetrahydroisoquinoline-1-carboxamide)benzoic acid, TFA salt] | –
22 | 3.24 nM | COc1cccc2c1CCN(C(=O)[C@H]1CC(c3cccc(Cl)c3F)=NO1)[C@@H]2C(=O)Nc1ccc(C(=O)O)cc1 [Example 293, 4-((S)-2-((R)-3-(3-chloro-2-fluorophenyl)-4,5-dihydroisoxazole-5-carbonyl)-5-methoxy-1,2,3,4-tetrahydroisoquinoline-1-carboxamide)benzoic acid] | –
23 | 111 nM | COc1cccc2c1CCN(C(=O)[C@H]1CC(c3cccc(Cl)c3F)=NO1)[C@H]2C(=O)Nc1ccc(C(=O)O)cc1 [Example 294, 4-((R)-2-((R)-3-(3-chloro-2-fluorophenyl)-4,5-dihydroisoxazole-5-carbonyl)-5-methoxy-1,2,3,4-tetrahydroisoquinoline-1-carboxamido)benzoic acid] | –
24 | 2.44 nM | O=C(O)c1ccc(NC(=O)[C@@H]2c3cccc(N4CCOCC4)c3CCN2C(=O)[C@H]2CC(c3cccc(Cl)c3F)=NO2)cc1 [Example 295, 4-((S)-2-((R)-3-(3-chloro-2-fluorophenyl)-4,5-dihydroisoxazole-5-carbonyl)-5-morpholino-1,2,3,4-tetrahydroisoquinoline-1-carboxamido)benzoic acid, TFA salt] | –
